Assay results as given in patent publication US20250388565A1, “ESTROGEN RECEPTOR ALPHA DEGRADERS AND METHODS OF USE THEREOF” (Relay Therapeutics, Inc., priority 2022, published 2025).

Target: T1, ERα protein (HiBiT-tagged) in ESR1_HiBiT KI MCF7 cells (Homo sapiens, UniProt P03372)
T1 sequence (P03372 1-595): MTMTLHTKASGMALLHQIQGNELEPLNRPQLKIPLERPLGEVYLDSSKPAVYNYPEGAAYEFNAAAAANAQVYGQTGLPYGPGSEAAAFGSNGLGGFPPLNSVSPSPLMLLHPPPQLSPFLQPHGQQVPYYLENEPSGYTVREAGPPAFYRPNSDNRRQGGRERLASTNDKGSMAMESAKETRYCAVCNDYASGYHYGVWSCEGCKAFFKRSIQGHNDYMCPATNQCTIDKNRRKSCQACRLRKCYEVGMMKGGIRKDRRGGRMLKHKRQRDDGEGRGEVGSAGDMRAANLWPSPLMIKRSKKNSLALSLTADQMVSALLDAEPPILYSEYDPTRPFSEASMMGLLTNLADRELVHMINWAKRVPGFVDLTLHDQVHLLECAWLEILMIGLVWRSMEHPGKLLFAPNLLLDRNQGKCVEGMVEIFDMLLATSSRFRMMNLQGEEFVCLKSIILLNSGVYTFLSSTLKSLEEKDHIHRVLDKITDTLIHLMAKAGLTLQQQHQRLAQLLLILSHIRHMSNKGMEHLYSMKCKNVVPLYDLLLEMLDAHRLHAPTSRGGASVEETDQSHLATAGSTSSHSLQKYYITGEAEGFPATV
Assay: Nano Glo HiBiT Lytic Degradation Assay
Assay type: cell-based
Details: 6 hours with compound, 14-point dose response 1:3, bell-shape curve fit, half-maximal effect of first Hill model, read-out: MCF7 ESR1 HiBiT - (DC50)
Method in brief: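 HiBiT-tagged endogenous ERα remaining in MCF7 knock-in cells was quantified by lytic luminescence after a 6 h treatment. DC50 values derive from a bell-shaped curve, taken at the first Hill component's half-maximal effect.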

Row | Structure (SMILES) | DC50
1 | O=C1CCC(c2ccc(N3CC[C@@]4(CCN(CC5CCN(c6ccc([C@@H]7c8ccc(O)cc8CC[C@@H]7c7ccccc7)cc6)CC5)C4)C3)cc2)C(=O)N1 (single isomer, unassigned) [Compound I-280] | 0.76 nM
2 | Cc1cc(F)ccc1[C@@H]1CC(F)(F)c2cc(O)ccc2[C@@H]1c1ccc(N2CCC(CN3CCN(c4ccc5c(c4)CN([C@H]4CCC(=O)NC4=O)C5=O)CC3)CC2)cc1 [Compound I-327, (S)-3-(5-(4-((1-(4-((1S,2R)-4,4-difluoro-2-(4-fluoro-2-methylphenyl)-6-hydroxy-1,2,3,4-tetrahydronaphthalen-1-yl)phenyl)piperidin-4-yl)methyl)piperazin-1-yl)-1-oxoisoindolin-2-yl)piperidine-2,6-dione] | ≥ 10000 nM
3 | C[C@@H]1CN(CC2CCN(c3ccc([C@@H]4c5ccc(O)cc5CC[C@@H]4c4ccccc4)cc3)CC2)CCN1c1ccc2c(c1)CN([C@H]1CCC(=O)NC1=O)C2=O (single isomer, unassigned) [II-3] | 6 nM
4 | O=C1CC[C@H](N2Cc3cc(N4CCN(CC5CCN(c6ccc([C@@H]7c8ccc(O)cc8CO[C@@H]7C7CCCCC7)cc6)CC5)CC4)ccc3C2=O)C(=O)N1 [Compound I-34, (S)-3-(5-(4-((1-(4-((3R,4R)-3-cyclohexyl-7-hydroxyisochroman-4-yl)phenyl)piperidin-4-yl)methyl)piperazin-1-yl)-1-oxoisoindolin-2-yl)piperidine-2,6-dione] | 0.49 nM
5 | Cc1ccccc1[C@H]1CCc2cc(O)ccc2[C@H]1c1ccc(N2CCC(CN3CCN(c4ccc5c(c4)CN([C@H]4CCC(=O)NC4=O)C5=O)CC3)CC2)cc1 (single isomer, unassigned) [II-34] | 40 nM
6 | O=C1CC[C@H](N2Cc3cc(N4CCN(CC5CCN(c6ccc([C@@H]7c8ccc(O)cc8CC[C@@H]7c7ccc8c(c7)CCCC8)cc6)CC5)CC4)ccc3C2=O)C(=O)N1 (single isomer, unassigned) [Compound I-59] | 906 nM
7 | O=C1CC[C@H](N2Cc3cc(N4CCN(CC5CCN(c6ccc([C@H]7c8ccc(O)cc8CC[C@H]7c7ccc8c(c7)CCC8)cc6)CC5)CC4)ccc3C2=O)C(=O)N1 (single isomer, unassigned) [Compound I-413] | 0.27 nM
8 | O=C1CCC(c2ccc(N3CCN(CCC4CCN(c5ccc([C@H]6c7ccc(O)cc7CC[C@H]6c6ccccc6)cc5)CC4)CC3)cc2)C(=O)N1 (single isomer, unassigned) [Compound I-42] | ≥ 10000 nM
9 | O=C1CCN(c2ccc(N3CC[C@@]4(CCN(CC5CCN(c6ccc([C@@H]7c8ccc(O)cc8C(F)(F)C[C@@H]7c7ccccc7)cc6)CC5)C4)C3)cc2)C(=O)N1 (single isomer, unassigned) [Compound I-290] | 0.22 nM
10 | O=C1CC[C@H](N2Cc3cc(N4CCN(CC5CCN(c6ccc([C@@H]7CCCc8cc(O)ccc87)cc6)CC5)CC4)ccc3C2=O)C(=O)N1 (single isomer, unassigned) [Compound I-103] | ≥ 10000 nM
11 | C[C@H]1Cc2cc(O)ccc2[C@H](c2ccc(N3CCC(CN4CCN(c5ccc6c(c5)CN([C@H]5CCC(=O)NC5=O)C6=O)CC4)CC3)cc2)[C@@H]1c1ccccc1 [Compound I-334, (S)-3-(5-(4-((1-(4-((1S,2R,3S)-6-hydroxy-3-methyl-2-phenyl-1,2,3,4-tetrahydronaphthalen-1-yl)phenyl)piperidin-4-yl)methyl)piperazin-1-yl)-1-oxoisoindolin-2-yl)piperidine-2,6-dione] | 28 nM
12 | O=C1CCC(n2cc3cc(N4CCN(CC5CCN(c6ccc([C@@H]7c8ccc(O)cc8CC[C@@H]7c7ccccc7)cc6)CC5)CC4)ccc3n2)C(=O)N1 (stereo partly shown) [Compound I-301] | 1 nM
13 | O=C1CCC(c2ccc(N3CC[C@@H]4[C@H]3CCN4CC3CCN(c4ccc([C@@H]5c6ccc(O)cc6CC[C@@H]5c5ccccc5)cc4)CC3)cc2)C(=O)N1 (stereo partly drawn) [Compound I-176, 3-(4-((3aR,6aR)-4-((1-(4-((1R,2S)-6-hydroxy-2-phenyl-1,2,3,4-tetrahydronaphthalen-1-yl)phenyl)piperidin-4-yl)methyl)hexahydropyrrolo[3,2-b]pyrrol-1 (2H)-yl)phenyl)piperidine-2,6-dione] | 3300 nM
14 | O=C1CCC(N2Cc3cc(N4CCN(CC5CCN(c6ccc([C@@H]7c8ccc(O)cc8CC[C@@H]7c7cccc8c7CC8)cc6)CC5)CC4)ccc3C2=O)C(=O)N1 (single isomer, unassigned) [Compound I-100] | 0.33 nM
15 | O=C1CC[C@H](N2Cc3cc(N4CCN(CC5CCN(c6ccc([C@H]7c8ccc(O)cc8COC78CCCCC8)cc6)CC5)CC4)ccc3C2=O)C(=O)N1 [Compound I-122, (S)-3-(5-(4-((1-(4-((S)-7′-hydroxyspiro[cyclohexane-1,3′-isochroman]-4′-yl)phenyl)piperidin-4-yl)methyl)piperazin-1-yl)-1-oxoisoindolin-2-yl)piperidine-2,6-dione] | ≥ 10000 nM
16 | O=C1CC[C@H](N2Cc3cc(N4CCN(CC5CCN(c6ccc([C@H]7c8ccc(O)cc8CO[C@@H]7C7CCCCC7)cc6)CC5)CC4)ccc3C2=O)C(=O)N1 [Compound I-248, (S)-3-(5-(4-((1-(4-((3R,4S)-3-cyclohexyl-7-hydroxyisochroman-4-yl)phenyl)piperidin-4-yl)methyl)piperazin-1-yl)-1-oxoisoindolin-2-yl)piperidine-2,6-dione] | 21 nM
17 | O=C1CC[C@H](N2Cc3cc(N4CCN(CC5CCN(c6ccc([C@@H]7c8ccc(O)cc8CO[C@@H]7c7cccc(OC(F)(F)F)c7)cc6)CC5)CC4)ccc3C2=O)C(=O)N1 [Compound I-362, (S)-3-(5-(4-((1-(4-((3S,4R)-7-hydroxy-3-(3-(trifluoromethoxy)phenyl)isochroman-4-yl)phenyl)piperidin-4-yl)methyl)piperazin-1-yl)-1-oxoisoindolin-2-yl)piperidine-2,6-dione] | 1 nM
18 | C[C@H]1OC2(CCCCC2)[C@@H](c2ccc(N3CCC(CN4CCN(c5ccc6c(c5)CN([C@H]5CCC(=O)NC5=O)C6=O)CC4)CC3)cc2)c2ccc(O)cc21 [Compound I-268, (S)-3-(5-(4-((1-(4-((1′R,4′S)-7′-hydroxy-1′-methylspiro[cyclohexane-1,3′-isochroman]-4′-yl)phenyl)piperidin-4-yl)methyl)piperazin-1-yl)-1-oxoisoindolin-2-yl)piperidine-2,6-dione] | ≥ 10000 nM
19 | C[C@@H](C1CC1)[C@H]1CC(F)(F)c2cc(O)ccc2[C@H]1c1ccc(N2CCC(CN3CCN(c4ccc5c(c4)CN([C@H]4CCC(=O)NC4=O)C5=O)CC3)CC2)cc1 (single isomer, unassigned) [Compound I-227] | 4 nM
20 | O=C1CC[C@H](N2Cc3cc(N4CCN(CC5CCN(c6ccc([C@H]7c8ccc(O)cc8C(F)(F)C[C@H]7C7CCCC7)cc6)CC5)CC4)ccc3C2=O)C(=O)N1 [Compound I-234, (S)-3-(5-(4-((1-(4-((1S,2S)-2-cyclopentyl-4,4-difluoro-6-hydroxy-1,2,3,4-tetrahydronaphthalen-1-yl)phenyl)piperidin-4-yl)methyl)piperazin-1-yl)-1-oxoisoindolin-2-yl)piperidine-2,6-dione] | 959 nM
21 | O=C1CCC(N2Cc3cc(N4CCN(CC5CCN(c6ccc([C@@H]7c8ccc(O)cc8CC[C@@H]7c7ccc(F)cc7)cc6)CC5)CC4)ccc3C2=O)C(=O)N1 (stereo partly shown) [II-109] | 1.05 nM
22 | CC(C)c1ccccc1[C@H]1OCc2cc(O)ccc2[C@H]1c1ccc(N2CCC(CN3CCN(c4ccc5c(c4)CN([C@H]4CCC(=O)NC4=O)C5=O)CC3)CC2)cc1 [Compound I-351, (S)-3-(5-(4-((1-(4-((3S,4R)-7-hydroxy-3-(2-isopropylphenyl)isochroman-4-yl)phenyl)piperidin-4-yl)methyl)piperazin-1-yl)-1-oxoisoindolin-2-yl)piperidine-2,6-dione] | 0.2 nM
23 | [2H]c1cc2c(c([2H])c1O)C([2H])C[C@H](c1ccccc1)[C@@H]2c1ccc(N2CCC(CN3CCN(c4ccc5c(c4)CN([C@H]4CCC(=O)NC4=O)C5=O)CC3)CC2)cn1 (stereo partly shown) [Compound I-339] | 0.31 nM
24 | O=C1CCC(N2Cc3cc(N4CCN(CC5CCN(c6ccc([C@@H]7c8ccc(O)cc8CC[C@@H]7c7cccnc7)cc6)CC5)CC4)ccc3C2=O)C(=O)N1 (single isomer, unassigned) [Compound I-107] | ≥ 10000 nM
25 | O=C1CC[C@H](N2Cc3cc(N4CCN(C[C@H]5CCCN(c6ccc([C@@H]7c8ccc(O)cc8CC[C@@H]7c7ccccc7)cc6)C5)CC4)ccc3C2=O)C(=O)N1 (single isomer, unassigned) [II-22] | 5 nM
26 | C[C@H]1OC2(CCCCC2)[C@H](c2ccc(N3CCC(CN4CCN(c5ccc6c(c5)CN([C@H]5CCC(=O)NC5=O)C6=O)CC4)CC3)cc2)c2ccc(O)cc21 (single isomer, unassigned) [Compound I-269] | 6 nM
27 | Cc1cc(N2CCC(CN3CCN(c4ccc5c(c4)CN([C@H]4CCC(=O)NC4=O)C5=O)CC3)CC2)cc(F)c1[C@H]1c2ccc(O)cc2CC[C@H]1C1CCCCC1 (single isomer, unassigned) [Compound I-235] | ≥ 10000 nM
28 | O=C1CC[C@H](N2Cc3cc(N4CCN(CC5CCN(c6cc(F)c([C@H]7c8ccc(O)cc8CC[C@H]7c7ccccc7)c(F)c6)CC5)CC4)ccc3C2=O)C(=O)N1 [II-103] | ≥ 10000 nM
